Measured values taken from patent publication US20240148821A1, “PHARMACEUTICAL USE OF CYCLIC PEPTIDE COMPOUND” (CHUGAI SEIYAKU KABUSHIKI KAISHA, priority 2021, published 2024).
Bridge positions count the residues as written; N and C are the ends. Square brackets hold non-standard residues; d marks the D form. Peptide text beside a SMILES is read from it. * marks the point of attachment. hPhe(3,5-F2-4-CF3) = N[C@@H](CCc1cc(F)c(C(F)(F)F)c(F)c1)C(=O)O; hPhe(3-Cl-4-CF3) = N[C@@H](CCc1ccc(C(F)(F)F)c(Cl)c1)C(=O)O; NMePhe(4-CF3) = CN[C@@H](Cc1ccc(C(F)(F)F)cc1)C(=O)O; NMeAbu(4,4,4-F3) = CN[C@@H](CC(F)(F)F)C(=O)O; NMePhe(4-Me) = CN[C@@H](Cc1ccc(C)cc1)C(=O)O; NMeGly(cPent) = CN[C@H](C(=O)O)C1CCCC1; Pro(4,4-F2) = O=C(O)[C@@H]1CC(F)(F)CN1; NMeCha = CN[C@@H](CC1CCCCC1)C(=O)O; NMehLeu = CN[C@@H](CCC(C)C)C(=O)O; Hyp = O=C(O)[C@@H]1C[C@@H](O)CN1; NMeChg = CN[C@H](C(=O)O)C1CCCCC1; NMeI = CC[C@H](C)[C@H](NC)C(=O)O; NMeD = CN[C@@H](CC(=O)O)C(=O)O; NMeL = CN[C@@H](CC(C)C)C(=O)O; d(β3hA) = C[C@@H](N)CC(=O)O; Morpholide = C1CN(*)CCO1; NMeA = CN[C@@H](C)C(=O)O; Pyrrolidide = C1CCN(*)C1; Ac5c = NC1(C(=O)O)CCCC1; Aze = O=C(O)[C@@H]1CCN1; Sar = CNCC(=O)O

Experiments:
[1] = biological target: protein-protein interaction between Kras and SOS1 (biotin-tagged human Kras loaded with GDP, His-tagged human SOS1) (Homo sapiens (Human), UniProt P01116, G12D); assay: Protein-protein interaction inhibition between Kras and SOS1 (KrasG12D-SOS PPI) using AlphaScreen; assay type: biochemical; details: AlphaScreen; biotin-tagged human Kras loaded with GDP, His-tagged human SOS1; read-out: KRAS G12D-SOS PPI IC50;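 further: kras produced in E. coli, Ni-coupled donor beads and streptavidin acceptor beads, excitation 680 nm with emission detected at 520–620 nm via singlet oxygen transfer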
[2] = test system: Human pancreatic cancer cell line AsPC-1 (G12D mutation Kras); assay: AsPC-1 cell growth inhibition (AsPC-1 CGI); assay type: cell-based; details: read-out: AsPC-1 cell growth inhibition, 50% growth inhibitory concentration (IC50 value); 96 hours, CellTiter-Glo, values classified in ranges
Procedure: Test compounds were serially dilated with dimethyl sulfoxide, and 200 nL was then dispensed to a U-bottom 96-well plate using Labcyte Echo. […] The cell suspension was dispensed to a. plate containing a test compound at 100 μL per well and incubated at 37° C. in a 5% carbon dioxide gas incubator. 96 hours later, 80 μL of CellTiter-Glo (Promega) was added to each well and fluorescence was measured.

SMILES	IC50 [1] [nM]	IC50 [2] [nM]
CCO[C@@H]1C[C@H]2C(=O)NC3(CCCC3)C(=O)N(C)[C@@H](C3CCCCC3)C(=O)N(C)[C@H](C(=O)N3CCOCC3)CC(=O)N(C)[C@@H](CC(C)C)C(=O)N[C@@H]([C@@H](C)CC)C(=O)N(C)CC(=O)N(C)CC(=O)N(C)[C@@H](CC3CCCCC3)C(=O)N(C)CC(=O)N[C@@H](CCc3cc(F)c(C(F)(F)F)c(F)c3)C(=O)N2C1 [Compound 1290] ([NMeL]I[Sar][Sar][NMeCha][Sar][hPhe(3,5-F2-4-CF3)][Hyp](Et)[Ac5c][NMeChg][NMeD]-Morpholide; lactam N-11)	0.63	≤ 20
CC[C@H](C)[C@@H]1NC(=O)[C@H](CC(C)C)N(C)C(=O)C[C@@H](C(=O)N2CCOCC2)N(C)C(=O)[C@H]([C@@H](C)CC)N(C)C(=O)C2(CCCC2)NC(=O)[C@@H]2CCCN2C(=O)[C@H](CCc2ccc(C(F)(F)F)c(Cl)c2)NC(=O)CN(C)C(=O)[C@H](Cc2ccc(C(F)(F)F)cc2)N(C)C(=O)[C@@H]2CCN2C(=O)[C@H](C)NC1=O [Compound 1293] ([NMeL]IA[Aze][NMePhe(4-CF3)][Sar][hPhe(3-Cl-4-CF3)]P[Ac5c][NMeI][NMeD]-Morpholide; lactam N-11)	0.96	≤ 20
CCO[C@@H]1C[C@H]2C(=O)NC3(CCCC3)C(=O)N(C)[C@@H](C3CCCCC3)C(=O)N(C)[C@H](C(=O)N3CCOCC3)CC(=O)N(C)[C@@H](CC(F)(F)F)C(=O)N[C@@H]([C@@H](C)CC)C(=O)N(C)CC(=O)N(C)CC(=O)N(C)[C@@H](Cc3ccc(C(F)(F)F)cc3)C(=O)N(C)CC(=O)N[C@@H](CCc3cc(F)c(C(F)(F)F)c(F)c3)C(=O)N2C1 [Compound 1297] ([NMeAbu(4,4,4-F3)]I[Sar][Sar][NMePhe(4-CF3)][Sar][hPhe(3,5-F2-4-CF3)][Hyp](Et)[Ac5c][NMeChg][NMeD]-Morpholide; lactam N-11)	0.51	≤ 20
CC[C@H](C)[C@@H]1NC(=O)[C@H](CC(C)C)N(C)C(=O)C[C@@H](C)NC(=O)[C@H](C2CCCC2)N(C)C(=O)C2(CCCC2)NC(=O)[C@@H]2CCCN2C(=O)[C@H](CCc2ccc(C(F)(F)F)c(Cl)c2)NC(=O)CN(C)C(=O)[C@H](C)N(C)C(=O)[C@@H]2CCN2C(=O)[C@H](C)N(C)C1=O [Compound 1300] (cyclo([Ac5c][NMeGly(cPent)][d(β3hA)][NMeL]I[NMeA][Aze][NMeA][Sar][hPhe(3-Cl-4-CF3)]P))	94	> 500
CCO[C@@H]1C[C@H]2C(=O)NC3(CCCC3)C(=O)N(C)[C@@H](C3CCCCC3)C(=O)N(C)[C@H](C(=O)N3CCCC3)CC(=O)N(C)[C@@H](CC(F)(F)F)C(=O)N[C@@H]([C@@H](C)CC)C(=O)N(C)CC(=O)N(C)CC(=O)N(C)[C@@H](Cc3ccc(C)cc3)C(=O)N(C)CC(=O)N[C@@H](CCc3cc(F)c(C(F)(F)F)c(F)c3)C(=O)N2C1 [Compound 1301] ([NMeAbu(4,4,4-F3)]I[Sar][Sar][NMePhe(4-Me)][Sar][hPhe(3,5-F2-4-CF3)][Hyp](Et)[Ac5c][NMeChg][NMeD]-Pyrrolidide; lactam N-11)	0.67	≤ 20
CC[C@H](C)[C@@H]1NC(=O)[C@H](CC(C)C)N(C)C(=O)C[C@@H](C(=O)N2CCOCC2)N(C)C(=O)[C@H](C2CCCC2)N(C)C(=O)C2(CCCC2)NC(=O)[C@@H]2CCCN2C(=O)[C@H](CCc2cc(F)c(C(F)(F)F)c(F)c2)NC(=O)CN(C)C(=O)[C@H](CC2CCCCC2)N(C)C(=O)[C@@H]2CCN2C(=O)[C@H](C)N(C)C1=O [Compound 1308] ([NMeL]I[NMeA][Aze][NMeCha][Sar][hPhe(3,5-F2-4-CF3)]P[Ac5c][NMeGly(cPent)][NMeD]-Morpholide; lactam N-11)	0.65	≤ 20
CC[C@H](C)[C@@H]1NC(=O)[C@H](CCC(C)C)N(C)C(=O)C[C@@H](C(=O)N2CCCC2)N(C)C(=O)[C@H]([C@@H](C)CC)N(C)C(=O)C2(CCCC2)NC(=O)[C@@H]2CCCN2C(=O)[C@H](CCc2ccc(C(F)(F)F)c(Cl)c2)NC(=O)CN(C)C(=O)[C@H](Cc2ccc(C(F)(F)F)cc2)N(C)C(=O)[C@@H]2CCN2C(=O)[C@H](C)NC1=O [Compound 1310] ([NMehLeu]IA[Aze][NMePhe(4-CF3)][Sar][hPhe(3-Cl-4-CF3)]P[Ac5c][NMeI][NMeD]-Pyrrolidide; lactam N-11)	0.87	≤ 20
CC[C@H](C)[C@@H]1NC(=O)[C@H](CC(C)C)N(C)C(=O)C[C@@H](C(=O)N2CCOCC2)N(C)C(=O)[C@H]([C@@H](C)CC)N(C)C(=O)C2(CCCC2)NC(=O)[C@@H]2CC(F)(F)CN2C(=O)[C@H](CCc2ccc(C(F)(F)F)c(Cl)c2)NC(=O)CN(C)C(=O)[C@H](Cc2ccc(C(F)(F)F)cc2)N(C)C(=O)[C@@H]2CCN2C(=O)[C@H](C)N(C)C1=O [Compound 1311] ([NMeL]I[NMeA][Aze][NMePhe(4-CF3)][Sar][hPhe(3-Cl-4-CF3)][Pro(4,4-F2)][Ac5c][NMeI][NMeD]-Morpholide; lactam N-11)	0.51	≤ 20
